# Experimental data published in article PMC3481155, “AhR activation underlies the CYP1A autoinduction by A-998679 in rats” (Frontiers in Genetics, 2012).
# What was measured:
# [1] = 5-day oral rat study, pharmacokinetic analysis of plasma exposure; assay type: in vivo
# Experimental: All animal experiments were conducted in accordance with the Guiding Principles in the Use of Animals in Toxicology (http://www.toxicology.org/ai/air/air6.asp) and were approved by Abbott's Institutional Animal Care and Use Committee (IACUC). Male Sprague-Dawley rats [Crl:CD®(SD)IGS BR], weighing ~250 g at study initiation were obtained from Charles River Laboratories, Inc. (Wilmington, MA). Rats were housed singly in ventilated, stainless steel, wire-bottom hanging cages and fed non-certified Rodent Chow (Harlan Labs, Madison, WI), and water ad libitum and acclimated for at least 5 days after arrival. Rats were randomly assigned to various treatment groups (3 rats/group) and were dosed once daily by oral gavage with vehicle (0.2% hydroxypropylmethylcellulose at a dose volume of 10 ml/kg) or with 30, 100, or 200 mg/kg of A-998679. All rats were fasted overnight after their last dose, weighed and sacrificed under isoflurane anesthesia. For histopathological evaluation, liver, heart, kidney, spleen, bone (sternum) with marrow, gastrointestinal tract (duodenum with pancreas, jejunum, ileum, cecum, and colon), thymus, and lung were fixed in formalin, routinely processed, and embedded in paraffin. Paraffin sections (4 μm) were stained with hematoxylin and eosin. Liver and small intestine (jejunum) were also flash frozen in liquid nitrogen and stored at −80°C until processing for gene expression profiling. Serum clinical chemistry parameters were quantified using an Aeroset Clinical Chemistry Analyzer (Abbott Laboratories, Abbott Park, IL) and included alanine amino transferase (ALT), aspartate amino transferase (AST), gamma glutamyltransferase (GGT), and alkaline phosphatase (ALP) activities.
# Serial blood samples were obtained from a tail vein of each rat 0.5, 1.5, 3, 6, 9, 12, and 24 h after drug administration on the first and last day of dosing. Plasma was separated by centrifugation and stored frozen prior to analysis. A-998679 was separated from the plasma using protein precipitation with acetonitrile. A-998679 and the internal standard were separated from co-extracted contaminants on a 50 × 3 mm Betasil CN column (Thermosystem) with an acetonitrile: 10 mM ammonium acetate mobile phase (35:65, by volume) at a flow rate of 0.4 ml/min at ambient temperature. Concentrations of A-998679 in the plasma extracts were determined by HPLC-MS/MS (API2000; Applied Biosystems). Peak plasma concentrations (Cmax) and the time to peak plasma concentration (Tmax) were read directly from the plasma concentration data for each rat. A-998679 plasma concentration data were submitted to multi-exponential curve fitting using WinNonlin. The area under the plasma concentration-time curve from 0 to t hours (time of the last measurable plasma concentration) after dosing (AUC0-t) was calculated using the linear trapezoidal rule for the plasma concentration-time profiles. The residual area extrapolated to infinity, determined as the final measured plasma concentration (Ct) divided by the terminal elimination rate constant (β), was added to AUC0-t to produce the total area under the curve (AUC0-∞).
# Cyp1a1 = Cyp1a1 mRNA induction in primary rat hepatocytes; assay type: cell-based; details: 10 μM, 24 h, data not shown
# Experimental: Rat hepatocytes were isolated in a perfusion procedure as described previously (Elliget and Kolaja, [1983]; Waring et al., [2001]). The beagle dog hepatocytes were isolated in the same manner, except for adjustment of flow rate and buffer volume to scale to liver size. Cells were plated at a seeding density of 1.0 × 10^6 cells per well on 6-well, collagen-type I coated plates (BD Biosciences, Bedford, MA) in hepatocyte plating medium (Celsis, Baltimore, MD). Cells were allowed to attach for 24 h in a 37°C humidified incubator with a 5% CO2 atmosphere and were dosed for 24 h (rat) or 48 h (dog) with vehicle control [0.1% DMSO (v/v)] or 10 μM A-998679 in fresh treatment media (Celsis hepatocyte incubation media) every 24 h. After the last incubation, cells were lysed in 1 ml of Qiazol (Qiagen) and stored at −80°C until RNA isolation. Cryopreserved human hepatocytes (donor designation Hu4198; Invitrogen Life Technologies, Carlsbad, CA) were thawed and plated according to the manufacturer's protocol and allowed to incubate for 24 h. […]
# RNA samples were diluted with RNase-free molecular biology grade water to a concentration of 20 ng/μl total RNA. […] Results were analyzed by calculating the fold change of CYP1A1 and/or CYP1A2 mRNA levels normalized to 28S rRNA (ΔΔ Ct) in compound treated cells or tissues compared to vehicle levels. […]
# [2] = 30 and 100 mg/kg/day, data not shown
compound,measurement,setting,value
"N#Cc1cccc(-c2noc(-c3cccnc3)n2)c1 [A-998679, 3-(5-pyridin-3-yl-1,2,4-oxadiazol-3-yl) benzonitrile]",decline in Cmax after 5 days of dosing compared to the first day,"[1]; 30 mg/kg/day, day 5 vs day 1",88%
same,decrease in plasma AUC after 5 days of dosing,"[1]; 30 mg/kg/day, day 5 vs day 1",95%
same,decline in Cmax after 5 days of dosing compared to the first day,"[1]; 100 mg/kg/day, day 5 vs day 1",53%
same,decrease in plasma AUC after 5 days of dosing,"[1]; 100 mg/kg/day, day 5 vs day 1",80%
same,change in AUC after 5 days of dosing,"[1]; 200 mg/kg/day, day 5 vs day 1",no change
same,change in Cmax after 5 days of dosing,"[1]; 200 mg/kg/day, day 5 vs day 1",no change
same,change in Tmax after 5 days of dosing,[1]; [2],decrease
same,change in t1/2 after 5 days of dosing,[1]; [2],decrease
same,Cmax,"[1]; male, Sprague-Dawley, plasma, 30 mg/kg",~5 µM
same,Cyp1a1 mRNA induction,Cyp1a1,also observed
